Measured values published in patent US10857105B2, “Compounds and compositions for intracellular delivery of therapeutic agents” (ModernaTX, Inc., priority 2017, dated 2020).
Entries after “also recorded” stand apart in the source; their conditions may differ. Marks after values point to notes of the source that are not given here.

Legend:
[1] = Tolerability (AST, ALT, clinical signs, hematology) in non-human primates; assay type: in vivo; conditions: single dose 0.05, 0.3 or 1.0 mpk, intravenous infusion 60 minutes
Protocol: The tolerability and efficacy of nanoparticle compositions to non-human primates was also investigated using a sample formulation including Compound 18. The formulation was prepared according to the standard MC3 formulation described above and included an hEPO mRNA. Primates were administered a single dose of 0.05 (Group 1), 0.3 (Group 2), or 1.0 (Group 3) mpk via intravenous infusion for 60 minutes. Three primates were administered each dose. Expression of hEPO was measured prior to dosing and at 2, 6, 24, 48, and 96 hours post-treatment (Table 26). Table 28 includes levels of indicators of complement activation, while Table 29 includes cytokine induction data.
In general, lower doses were better tolerated. High doses induced body temperature elevation and hunched posture, which is similar to the behavior observed for primates administered higher doses of MC3 formulations.

[2] = One month toxicology evaluation in cynomolgus monkeys (serum ALT, AST, C5b9, MCP-1); assay type: in vivo; conditions: 1 mg/kg mRNA
Protocol: FIGS. 32A-32C are a series of graphs summarizing the results of a one month toxicology evaluation in rat and non-human primate. PBS (phosphate buffered saline) was used as a control. […] The serum levels were measured 24 post fifth dose (n=4). […] The serum levels were measured 24 post fifth dose (n=4).
FIGS. 33A and 33B are a pair of graphs summarizing the results of a one month toxicology evaluation in rats and non-human primates.
FIG. 38 is a graph showing mRNA levels in NHP after repeat dosing over the course of 29 days.

mouse liver tissue = assay: Disappearance of parent lipid and primary metabolite from mouse liver after 0.25 mg/kg mRNA on days 1, 8 and 15; assay type: in vivo
Protocol: (§1) In vitro metabolite identification studies using compound 18 were also performed. […] The disappearance of parent compound 18 and the primary metabolite, compound 166, from mouse liver tissue was measured after dosing 0.25 mg/kg mRNA on days 1, 8, and 15.

human hepatocytes = assay: Metabolite profiling of Compound 18 incubated with human hepatocytes; assay type: in vitro ADME; parameters: key: +: Detected; ND: Not detected; conditions: Compound 18 (10 μM)
Protocol: as §1
The results of metabolic profiling and characterization for compound 18 incubated with human hepatocytes or human plasma are summarized in Tables 41 and 42, respectively.

cynomolgus monkeys = assay: Repeat dose hEPO expression in cynomolgus monkeys, once weekly for 5 weeks; assay type: in vivo, cynomolgus monkey; conditions: 0.2 mg/kg hEPO mRNA, 60-minute intravenous infusion, n=4
Protocol: (§2) NHP studies: Nonhuman primate studies were conducted using naïve cynomolgus monkeys (cynos), 2-4 years old, weighing 2-6 kg. No treatment randomization or blinding methods were used for any of the animal studies. Sample sizes were determined by the resource equation method. For injection, mRNA-LNPs in phosphate buffered saline (PBS) were administered by 60-minute intravenous infusion using a temporary indwelling catheter inserted in a peripheral vein.
hEPO ELISA for NHP samples: Human Epo levels were measured using a human erythropoietin immunoassay. Cytokines levels were measured using a non-human primate cytokine kit.
The level of expression provided by LNPs of the disclosure in a repeat dose experiment in primates was evaluated. A 0.2 mg/kg dose of hEPO mRNA in a compound 18-based LNP was delivered via a 60-minute intravenous infusion to cynomolgus monkeys (n=4) once weekly for 5 weeks.

cynomolgus monkey = assay: One-month toxicological evaluation with weekly dosing in cynomolgus monkey; assay type: in vivo
Protocol: as §2
Serum ALT and AST levels: Samples were analyzed using a Modular Analytics analyzer.
Serum C5b9 levels: C5b9 sample analysis was performed using an ELISA method. The kit used was Human C5b-9 ELISA Set and Reagent Set B from BD Bioscience. Study samples were analyzed in singlicate diluted 1/100.
bDNA for measurement of mRNA levels: mRNA sample analysis (bDNA method) was performed using the QuantiGene® 2.0 Reagent System kit from Affymetrix. Study samples were lysed prior to analysis using the QuantiGene Sample Processing Kit (Blood samples). Study samples were analyzed in duplicate diluted between 1/100 and 1/1250000.
Next, tolerability and safety of the compound 18-based LNPs in vivo was tested. A full toxicological evaluation of compound 18-based LNPs in both Sprague Dawley rat and cynomolgus monkey was performed using a standard one-month study with weekly dosing at three dose levels in each species. Rats were dosed at 0.05, 0.5, and 2 mg/kg and a non-human primates was dosed at 0.1, 0.3, and 1 mg/kg. LNP-related toxicities associated with MC3-based LNP systems are generally associated with immunological (cytokine and complement activation) and hepatic injury. […] FIGS. 32 and 33 highlight the day 30 levels of alanine transferase (ALT, FIG. 32A) and aspartate aminotransferase (AST, FIG. 32B), two indicators of liver damage.

ApoE knockout mice = assay: Expression study in ApoE knockout mice; assay type: in vivo; conditions: compound 18 based LNPs
IP-10 = assay: Cytokine induction (IP-10) in rats after intravenous administration; assay type: in vivo, rat; conditions: for IP-10 induction: rat, 48 hours
Protocol: The expression of hEPO and cytokine induction in rats intravenously administered a nanoparticle composition at a dose of 2.0 mpk was measured at 6 h.
(§3) Table 19A summarizes the hEPO expression, IP-10 induction, liver and spleen levels, and alanine aminotransferase (ALT) and aspartate aminotransferase (AST) measured upon intravenous administration of formulations including Compounds 48, 49, and 50 to rat at 0.2 and 2 mpk and hEPO mRNA. hEPO concentrations were measured 6 hours after administration, while cytokine induction and liver and spleen levels were measured 48 hours after administration. hEPO and IP-10 concentrations are presented in pg/ml, while liver levels are provided in ng/g. ALT and AST levels are presented in international units.

[3] = Alanine aminotransferase (ALT) and aspartate aminotransferase (AST) in rat after intravenous administration; assay type: in vivo
Protocol: as §3

Sprague Dawley rat liver = assay: Lipid remaining in rat liver tissue 48 h post dose (LC-MS/MS); assay type: in vivo; conditions: Sprague Dawley rat liver 48 h after 2 mg/kg bolus dose mRNA
From the text: Similar results were obtained in the Sprague Dawley rats using human erythropoietin (hEPO) encoding mRNA (FIG. 29C). […] Compound 18 and compound 25 provided a good balance of delivery efficiency and pharmacokinetics.

Sprague Dawley rat = conditions: 0.3 mg/kg dose mRNA; cited from earlier work
[4] = pKa / apparent pKa of nanoparticle compositions; conditions: Table 1B; formulated with hEPO mRNA
[5] = 60 min infusion, dosed weekly, after fifth dose (n=4)

CCCCCCCCCOC(=O)CCCCCCCN(CCO)CCCCCCCC(=O)OC(CCCCCCCC)CCCCCCCC [Compound 18, Heptadecan-9-yl 8-((2-hydroxyethyl)(8-(nonyloxy)-8-oxooctyl)amino)octanoate]
Tolerability [1]: tolerated similarly to the MC3 formulation
Serum alanine aminotransferase levels [2, 5]: No statistical difference between PBS pre-dose and day 30 levels
Serum aspartate aminotransferase levels [2, 5]: No statistical difference between PBS pre-dose and day 30 levels
MCP-1 serum concentration ([2]; day 1 and day 29 (n=4)): no statistical difference between PBS and Compound 18 at any other timepoint
clearance from mouse liver tissue (mouse liver tissue): rapid clearance
Detection at 0 min (human hepatocytes; human hepatocytes (1 million cells/mL), 0 min): +
Detection at 60 min (human hepatocytes; human hepatocytes, 60 min): +
Detection at 120 min (human hepatocytes; human hepatocytes, 120 min): +
Detection at 240 min (human hepatocytes; human hepatocytes, 240 min): +
hEPO exposure over repeat dosing (cynomolgus monkeys): Efficient expression; also recorded: Consistent exposure
monocyte chemo-attractive protein (MCP-1) (cynomolgus monkey): slight variation above baseline
ALT and AST levels, day 30 (cynomolgus monkey; 1 mg/kg dose): at the same level as the control
circulating mRNA levels after each dose (cynomolgus monkey; bDNA): consistent exposures
toxicological findings (cynomolgus monkey; weekly dosing one month, 0.1, 0.3 and 1 mg/kg): minimal findings at all dose levels
expression in ApoE knockout mice (ApoE knockout mice): almost complete loss in expression

CCCCCC=CCC=CCCCCCCCCC(CCCCCCCCC=CCC=CCCCCC)OC(=O)CCCN(C)C (stereo not shown) [MC3, heptatriaconta-6,9,28,31-tetraen-19-yl 4-(dimethylamino)butanoate, reference compound]
IP-10 induction (IP-10; intravenous 0.2 mpk): 2 pg/mL
IP-10 induction (IP-10; intravenous 2 mpk): 596 pg/mL
IP-10 (IP-10; rats, intravenous 2.0 mpk, hEPO nanoparticle compositions, 6 hours): 688.3 pg/mL
ALT ([3]; intravenous 0.2 mpk): 63.6 international units
AST ([3]; intravenous 0.2 mpk): 134.8 international units
ALT ([3]; intravenous 2 mpk): 79.6 international units
AST ([3]; intravenous 2 mpk): 139.0 international units
% dose remaining Rat liver tissue, 48 h (Sprague Dawley rat liver): 61^e %
ALT, AST and pathology of MC3-based mRNA LNP (Sprague Dawley rat): ALT and AST were elevated and pathology showed evidence of necrosis
Apparent pKa [4]: 6.35
